The values that follow come from ChEMBL document CHEMBL3997795, “Conjugates of 2,4-Dihydroxybenzoate and Salicylhydroxamate and Lipocations Display Potent Antiparasite Effects by Efficiently Targeting the Trypanosoma brucei and Trypanosoma congolense Mitochondrion” (J Med Chem, 2017).

Series [1] has as its system Trypanosoma brucei brucei. Briefly: Induction of mitochondrial membrane hyperpolarization in bloodstream trypomastigote stage of wild-type Trypanosoma brucei brucei Lister 427 at 10 uM after 10 mins by TMRE dye based flow cytometry. The series is classed as functional. For orientation: Flow cytometry measures light scatter and fluorescence of single cells or particles in a stream.

Series [2] has as its system Trypanosoma brucei brucei. Briefly: Reduction in oxygen consumption in bloodstream trypomastigote stage of wild-type Trypanosoma brucei brucei Lister 427 measured immediately for 120 mins by fluorescent oxygen reporter probe based fluorimetric assay. The series is classed as functional.
In series [3] the test system is Trypanosoma brucei brucei. Briefly: Reduction in oxygen consumption in bloodstream trypomastigote stage of wild-type Trypanosoma brucei brucei Lister 427 at 50 uM measured immediately for 120 mins by fluorescent oxygen reporter probe based fluorimetric assay. The series is classed as functional.
The subject of series [4] is Trypanosoma brucei brucei. Briefly: Anti-parasitic activity against bloodstream trypomastigote stage of wild-type Trypanosoma brucei brucei Lister 427 after 48 hrs by alamar blue based fluorescence assay. In kind it is functional. Conditions: Lister 427, 48 h. In general terms: Resazurin is reduced to fluorescent resorufin, in cell work by metabolically active cells.

The test system of series [5] is Trypanosoma brucei brucei. Briefly: Trypanocidal activity against bloodstream trypomastigote stage of wild-type Trypanosoma brucei brucei Lister 427 assessed as inhibition of respiration in presence of glycerol. In kind it is functional.
In series [6] the test system is Trypanosoma brucei brucei. Briefly: Anti-parasitic activity against bloodstream trypomastigote stage of Trypanosoma brucei brucei Lister 427 over-expressing TAO relative to bloodstream trypomastigote stage of wild-type Trypanosoma brucei brucei Lister 427. In kind it is functional.
Series [7] deals with Trypanosoma brucei brucei. Briefly: Induction of mitochondrial membrane depolarization in bloodstream trypomastigote stage of wild-type Trypanosoma brucei brucei Lister 427 at 100 nM after 10 mins by TMRE dye based flow cytometry. In kind it is functional.
In series [8] the test system is Trypanosoma brucei brucei. Briefly: Trypanocidal activity against bloodstream trypomastigote stage of wild-type Trypanosoma brucei brucei Lister 427 assessed as inhibition of respiration at 10 uM in presence of glycerol. The series is classed as functional.
The test system of series [9] is Trypanosoma brucei brucei. Briefly: Trypanocidal activity against bloodstream trypomastigote stage of wild-type Trypanosoma brucei brucei Lister 427 assessed as inhibition of respiration at 10 uM. In kind it is functional.
The test system of series [10] is Trypanosoma brucei brucei. Briefly: Anti-parasitic activity against diminazene, pentamidine and melaminophenyl arsenical-resistant bloodstream trypomastigote stage of Trypanosoma brucei brucei B48 harboring TbAT1 deletion mutant after 48 hrs by alamar blue based fluorescence assay. The series is classed as functional. Conditions: B48, 48 h.
Another series has as its system Trypanosoma congolense. Briefly: Anti-parasitic activity against bloodstream form of Trypanosoma congolense IL3000 after 48 hrs by alamar blue based fluorescence assay. In kind it is functional. As to conditions: IL3000, 48 h.
Series [11] can be described thus: Cytostatic activity against HEK293T cells after 30 hrs by resazurin based fluorimetric assay. In kind it is cell-based, HEK-293T. Conditions: human.
A short description of series [12]: Cytotoxicity against HEK cells up to 50 uM after 30 hrs by resazurin based fluorimetric assay. In kind it is cell-based. As to conditions: human.
The nature of series [13]: Selectivity index, ratio of CC50 for HEK293T cells to EC50 for bloodstream trypomastigote stage of wild-type Trypanosoma brucei brucei Lister 427. In kind it is toxicity. Conditions: human, read-out: Ratio CC50/EC50.
Series [14] can be described thus: Selectivity index, ratio of CC50 for HEK293T cells to EC50 for bloodstream form of Trypanosoma congolense IL3000. In kind it is toxicity. As to conditions: human, read-out: Ratio CC50/EC50.
Series [15] is described as follows: Resistance factor, ratio of EC50 for diminazene, pentamidine and melaminophenyl arsenical-resistant bloodstream trypomastigote stage of Trypanosoma brucei brucei B48 harboring TbAT1 deletion mutant to EC50 for bloodstream trypomastigote stage of wild-type Trypanosoma brucei brucei Lister 427. The series is classed as functional.

Calls of active or inactive are those of the source. The rule behind the calls is not given here.

On to `Cc1c(C)c2c(c(C)c1O)CCC(C)(COc1ccc(CC3SC(=O)NC3=O)cc1)O2` (configuration not stated), for which the result in series [1] was Active.

In the case of `O=C(NO)c1ccccc1O` [SALICYLHYDROXAMIC ACID], the Activity entry in [2] is “Dose-dependent effect”. Also, in series [3], the result was Active. In addition, the EC50 (commonly the concentration at which the effect is half-maximal) worked out at 38.7 µM in series [4] and 7 µM in series [5]. In addition, the “fold change (FC)” value in series [6] turned out to be 1.6.

On to `CC(C)[C@@H]1NC(=O)[C@H](C)OC(=O)[C@@H](C(C)C)NC(=O)[C@@H](C(C)C)OC(=O)[C@H](C(C)C)NC(=O)[C@H](C)OC(=O)[C@@H](C(C)C)NC(=O)[C@@H](C(C)C)OC(=O)[C@H](C(C)C)NC(=O)[C@H](C)OC(=O)[C@@H](C(C)C)NC(=O)[C@@H](C(C)C)OC1=O`, for which, in [7], the result was Active.

Take `BrCCCCCCCCCC[P+](c1ccccc1)(c1ccccc1)c1ccccc1.[Br-]`: the inhibition entry in series [8] and in series [9] was “inactive” each time. Further, the half-maximal effective concentration (EC50) in series [4] amounted to 0.0018 µM; in series [10], 0.0012 µM; in the series with Trypanosoma congolense it was 0.95 µM. Besides, in series [11], the midpoint of cytotoxicity, the CC50 at 30 h, lay at 6.01 µM. Moreover, in series [12], the Activity result is “Non-Toxic”. Besides, the selectivity ratio in series [13] turned out to be 3340; in series [14] it was 6.3. For the same compound, the Ratio EC50 in series [15] came to 0.7.
